# Assay results as given in patent publication US12173137B2, “Functionalized high-oleic soybean oil wax and emulsion for post-harvest treatment of fresh fruit” (Iowa State University Research Foundation, Inc., priority 2020, dated 2024).
# Marks after values point to notes of the source that are not given here.
# Key:
# Format in all cases: physicochemical
# [1] = Hardness of wax materials (penetrometer, ASTM D1321); conditions: reciprocal of needle penetration distance, room temperature
# Protocol: (§1) Hardness, defined as a measure of resistance to local deformation, was measured using a H-1200 Universal Penetrometer (Humboldt Mfg. Co., Raleigh, NC) following ASTM D1321 standard. Ten grams of molten material were cast in a 5 cm diameter by 3 cm tall hollow polyvinyl chloride plastic mold. Material was allowed to fully cool and equilibrate to room temperature for at least 6 hours prior to testing. The distance traveled by penetrometer needle (mm) into the wax disc was recorded as the hardness (mm^−1) after taking the reciprocal value. Cohesiveness, defined as the strength of a material due to interatomic or intermolecular forces, was measured as per previous methodology (Fei et al., “Synthesis and Characterization of Soybean Oil-Based Waxes and Their Application as Paraffin Substitute for Corrugated Coating,” J. Ind. Eng. Chem. 58:113-122 (2018), which is hereby incorporated by reference in its entirety) by a three-point bend test using a TA.XTPlus Texture Analyzer (Stable Micro Systems, So. Hamilton, MA) with a TA-92N probe on a 4 mm-thick cast wax sample, made by casting 2.2-2.8 g of molten material in a small hexagonal weighing boat, and allowing samples to cool to r.t. for at least 2 hours. Hexagonal samples were then sanded down flat to a uniform mass with a fine grit sanding sponge taking care to remove concave and convex regions. Test was performed by placing sample between two vertical support bars 12 mm apart and driving the blunt blade normal to the sample at 0.5 mm/s to a trigger distance of 3 mm. The area under curve was acquired from a distance at 0 mm to the peak positive force, and the average of three tests for each material was recorded as the cohesiveness (g mm) of the material.
# [2] = Cohesiveness of wax materials (three-point bend test); conditions: area under curve to peak force, 4 mm-thick cast sample
# Protocol: as §1
# [3] = Differential scanning calorimetry of wax materials; conditions: for Relative Crystallinity: 290 J/g for a 100% crystalline material; for Enthalpy of Melting: DSC, heating to 100° C. at 10° C./min
# Protocol: Melting profile of wax materials was analyzed with a DSC 250 Discovery (TA Instruments, New Castle, Del.) calorimeter using the methodology by Donhowe and Fennema (1993). Wax samples (approximately 10 mg) were first heated to 100° C. at a rate of 200° C./min, held for 3 min, cooled to 25° C. at a rate of 20° C./min and equilibrated for 3 min. Actual test ramp was then performed by heating to 100° C. at a rate of 10° C./min. Melting point ranges were calculated from the average of three samples from each material.
Compound,Hardness [1],Cohesiveness [2],Relative Crystallinity [3],Enthalpy of Melting [3] [J/g]
"CCCCCCC(=O)CCCCCCCCCCC(=O)OCC(COC(=O)CCCCCCCCCCC(=O)CCCCCC)OC(=O)CCCCCCCCCCC(=O)CCCCCC [Compound 8, Propane-1,2,3-triyl tris(12-oxooctadecanoate)]",0.50 ± 0.09 mm^−1,203 ± 49 g mm,43.7 ± 0.7^ %,126.8 ± 2.0
Triacylglyceride of Regioisomeric Hydroxyoctadecanoic Acid [Compound 3],0.68 ± 0.05 mm^−1,113 ± 13 g mm,12.9 ± 1.5^ef %,37.3 ± 4.3
"CCCCCC[C@@H](O)CCCCCCCCCCC(=O)O [Compound 6, (R)-12-hydroxyoctadecanoic acid, reference compound]",2.22 ± 0.04^c mm^−1,1443 ± 30^c g mm,51.2 ± 1.0^ab %,148.4 ± 3.1
"CCCCCCC(=O)CCCCCCCCCCC(=O)O [Compound 7, 12-Oxooctadecanoic Acid]",0.63 ± 0.08 mm^−1,360 ± 34 g mm,42.8 ± 10.1%,124.3 ± 29.4
Mixture of 9-Hydroxyoctadecanoic (4a) and 10-Hydroxyoctadecanoic Acid (4b) [Compound 4a-b],0.30 ± 0.02^e mm^−1,95 ± 1 g mm,6.3 ± 0.4^f %,18.3 ± 0.1
